Measured values taken from patent publication US9650616B2, “Methods for increasing grain yield” (University of Florida Research Foundation, Inc., priority 2014, dated 2017).

Experiments:
[1] = target: T1, maize endosperm AGPase, large subunit variant GGR (Q96G, D161G, A443R; numbering of SEQ ID NO: 20) (Zea mays, UniProt P55241+Q84PF5, A443R/D161G/Q96G); assay: Kinetic constants in the absence of 3-PGA, GGR; assay type: biochemical
T1 sequence (P55241 46-516 A443R/D161G/Q96G): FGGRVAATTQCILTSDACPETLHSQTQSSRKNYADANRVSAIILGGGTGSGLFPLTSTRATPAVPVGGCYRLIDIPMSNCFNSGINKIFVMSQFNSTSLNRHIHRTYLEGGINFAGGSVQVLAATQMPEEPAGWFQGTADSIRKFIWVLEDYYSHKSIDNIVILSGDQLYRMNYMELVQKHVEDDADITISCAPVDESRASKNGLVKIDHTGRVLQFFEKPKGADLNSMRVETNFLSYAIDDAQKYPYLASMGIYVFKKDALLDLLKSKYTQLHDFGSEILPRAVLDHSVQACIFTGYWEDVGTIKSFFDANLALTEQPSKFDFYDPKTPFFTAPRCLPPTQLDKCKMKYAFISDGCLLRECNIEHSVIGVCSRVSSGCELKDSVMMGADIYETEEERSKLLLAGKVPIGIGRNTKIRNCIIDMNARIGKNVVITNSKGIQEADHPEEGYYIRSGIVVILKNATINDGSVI
T1 sequence (Q84PF5 1-474): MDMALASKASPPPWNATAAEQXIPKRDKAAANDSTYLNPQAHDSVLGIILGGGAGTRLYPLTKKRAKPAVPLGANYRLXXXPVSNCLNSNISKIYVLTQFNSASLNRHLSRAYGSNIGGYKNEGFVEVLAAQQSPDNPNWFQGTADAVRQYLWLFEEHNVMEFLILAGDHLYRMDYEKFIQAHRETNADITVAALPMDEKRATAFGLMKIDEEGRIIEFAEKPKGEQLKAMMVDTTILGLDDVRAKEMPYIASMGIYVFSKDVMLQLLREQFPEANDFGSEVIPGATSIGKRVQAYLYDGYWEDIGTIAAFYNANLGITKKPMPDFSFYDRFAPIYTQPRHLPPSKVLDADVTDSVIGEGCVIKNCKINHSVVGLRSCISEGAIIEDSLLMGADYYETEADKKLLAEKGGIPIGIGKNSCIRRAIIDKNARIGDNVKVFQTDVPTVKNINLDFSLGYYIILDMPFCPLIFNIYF
Procedure: Reactions were performed for 10 min and terminated by boiling. Blank mixtures contained everything except ATP.
Based on the kinetic results (Table 10) and catalytic properties at 55° C. (Table 10) both D161G and GGR were selected for a more detailed kinetic analysis. […] The GGR mutant was primarily chosen based on its increased catalytic rate at 37° C. and high performance at 55° C. Its high activity in the absence of 3-PGA was also paramount. The first kinetic parameters determined were the Michaelis constants, the catalytic rate (kcat) and the dissociation constant (Kia) for the E-ATP complex, in the absence of 3-PGA. […] For the wt maize enzyme, this activator primarily responds by reducing the Km for both substrates, with little effect on the reaction rate (Boehlein et al., 2013). […] The kinetic mechanism established ATP as the first substrate to bind, thus the activator is no longer necessary for this first step. […] This variant also conditions both heat stability and high activity in the absence of an activator.

[2] = target: T1, maize endosperm AGPase, large subunit variant GGR (Q96G, D161G, A443R; numbering of SEQ ID NO: 20); assay: Pi inhibition in the absence of 3-PGA, GGR; assay type: biochemical
Procedure: Next, the kinetics of the GGR mutant were further investigated by following Pi inhibition in the presence and absence of 3-PGA. Experiments were performed by keeping both substrates constant and non-saturating at several fixed concentrations of Pi.
A similar examination of the Pi inhibition was then followed with GGR in the absence of 3-PGA.

Nc1ncnc2c1ncn2[C@@H]1O[C@H](COP(=O)(O)OP(=O)(O)OP(=O)(O)O)[C@@H](O)[C@H]1O [ATP] was tested, and the kcat ([1]; ATP varied at fixed G-1-P) was 72.4 s⁻¹, the Km ([1]; read-out: ATP Km) was 100 µM and the “ATP Km, fold lower than wt AGPase” value ([2]; Pi inhibition assay) was “approximately 40 fold”. It also gave a Km ([2]; read-out: Km (ATP), ATP varied, Pi inhibition, NC) of 540 µM.
